{"source": "paper PMC7349657", "about": "“Efficient Targeted Degradation via Reversible and Irreversible Covalent PROTACs” (Journal of the American Chemical Society, 2020)", "note": "Where “and” joins values, the source holds several entries; their conditions need not be identical. Identical values can stand only once."}
{"target": "T1, BTK C481S (Homo sapiens, UniProt Q06187, C481S)", "T1 construct": "Human wild type BTK full length was obtained from the ORFeome; expressed in transfected cells; host or cells: U2OS (ATCC HTB-96), pCDNA3.1, CMV promoter", "T1 sequence (Q06187 whole entry C481S)": "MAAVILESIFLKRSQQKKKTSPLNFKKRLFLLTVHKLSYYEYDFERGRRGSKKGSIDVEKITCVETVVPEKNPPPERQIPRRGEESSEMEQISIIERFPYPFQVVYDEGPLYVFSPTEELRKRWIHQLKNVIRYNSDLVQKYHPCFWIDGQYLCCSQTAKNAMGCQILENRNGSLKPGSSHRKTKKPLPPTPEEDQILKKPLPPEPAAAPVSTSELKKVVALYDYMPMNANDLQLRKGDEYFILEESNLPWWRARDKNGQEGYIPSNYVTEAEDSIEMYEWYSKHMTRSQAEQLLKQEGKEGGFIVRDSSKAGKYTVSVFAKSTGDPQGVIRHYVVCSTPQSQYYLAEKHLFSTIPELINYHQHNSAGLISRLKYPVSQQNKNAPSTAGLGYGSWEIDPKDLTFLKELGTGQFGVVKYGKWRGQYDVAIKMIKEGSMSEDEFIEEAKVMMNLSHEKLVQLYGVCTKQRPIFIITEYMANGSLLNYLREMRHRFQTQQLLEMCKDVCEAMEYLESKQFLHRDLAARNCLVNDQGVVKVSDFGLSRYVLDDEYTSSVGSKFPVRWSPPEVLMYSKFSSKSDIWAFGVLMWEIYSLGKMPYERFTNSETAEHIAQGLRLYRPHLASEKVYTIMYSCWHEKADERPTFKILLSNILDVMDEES", "test": "Degradation of overexpressed BTK C481S in transfected U2OS cells", "format": "cell-based", "details": "overexpressed WT vs C481S BTK, 100 nM, 24 h", "protocol": "Figure 5 Degradation of overexpressed BTK and BTK C481S in U2OS cells. (A) Transfected U2OS cells were treated with 100 nM PROTAC for 24 h, followed by measuring BTK levels via Western blot. (B) Quantification of normalized BTK levels in (A). TEXT PRINTED IN THE PICTURE: (A) IR-1: BTK % control: 43 (Transfection: BTK-WT; PROTAC 24h [0.1 μM]); BTK % control: 67 (Transfection: BTK-C481S; PROTAC 24h [0.1 μM]) | (A) RC-2: BTK % control: 58 (Transfection: BTK-WT; PROTAC 24h [0.1 μM]); BTK % control: 73 (Transfection: BTK-C481S; PROTAC 24h [0.1 μM]) | (A) IR-2: BTK % control: 41 (Transfection: BTK-WT; PROTAC 24h [0.1 μM]); BTK % control: 62 (Transfection: BTK-C481S; PROTAC 24h [0.1 μM]) | (A) NC-1: BTK % control: 27 (Transfection: BTK-WT; PROTAC 24h [0.1 μM]); BTK % control: 49 (Transfection: BTK-C481S; PROTAC 24h [0.1 μM]) | (A) RC-3: BTK % control: 27 (Transfection: BTK-WT; PROTAC 24h [0.1 μM]); BTK % control: 104 (Transfection: BTK-C481S; PROTAC 24h [0.1 μM]) DOUBTS OF THE COPYIST ABOUT THIS PICTURE: The % control numbers are printed under a Western blot. They are given here as printed results for each compound. The vehicle and untransfected lanes (DMSO 100 and 100, Un 1 and 0) were left out as controls. / Panel B prints no numbers for its bars, so nothing was taken from it.\n(§1) Ramos (ATCC, CRL-1596), Mino (ATCC, CRL-3000), or K562 (NCI-60) cell lines were counted and diluted to 10^6 cell/mL, using 1 mL per well in a 24-well plate, and U2OS (ATCC HTB-96) cells overexpressing human BTK WT or C481S mutant were grown using 2 mL in a six-well plate (see Supporting Information). Cells were incubated with 1% DMSO or compound in indicated concentrations for 24 h unless indicated differently, or cells were left untreated. Lysates were prepared as previously described,[29] and samples were measured for total protein quantification by bicinchoninic acid (BCA) assay (#23225 ThermoFisher Scientific) supplemented with 4× loading buffer including 20 mM DTT, heated to 70 °C for 10 min, loaded into 4% SDS-PAGE gel, run for 45 min at 140 mV, then transferred into a nitrocellulose membrane (Biorad) using a Trans-Blot Turbo transfer system (Biorad). The membrane was stained with Ponceau (Sigma) to validate transfer for 10 min in gentle agitation then destained for 1 h with MQ water. The membrane was blocked with Licor blocking buffer (LIC927-70001) for 1 h, washed three times for 5 min with TBS-T, incubated with primary antibody BTK (D3H5) rabbit mAb (CST; 8547 S) overnight (16 h) at 4 °C, washed three times for 5 min with TBS-T, and incubated with primary antibody against β-actin (CST; 3700) for 1 h at 25 °C. Membrane was washed three times for 5 min with TBS-T, incubated with fluorescent secondary antibodies anti-mouse IgG Alexa Fluor 647 (CST: 4410S) and anti-rabbit-IgG IRDye 800(LICOR: 926-32211) for 1 h, then washed three times for 5 min with TBS-T, dried, and immediately imaged and analyzed using Licor Odyssey CLx. Prism (GraphPad) software was used to calculate degradation levels. We used second-order polynomial fits to estimate DC50 and Dmax values.\nCloning and Over Expression of BTK\nHuman wild type BTK full length was obtained from the ORFeome (ref: http://www.orfeomecollaboration.org/), from which the full human BTK gene (clone HsCD00433457) was inserted into the mammalian expression vector pCDNA3.1. In parallel, a mutant BTK C481S was constructed by assemble 2 PCR products harboring the desired mutation and cloned into pCDNA3.1. […]"}
{"smiles": "N#CC(=CCCCCOCCOCCOCCOCCOc1cccc2c1C(=O)N(C1CCC(=O)NC1=O)C2=O)C(=O)N1CCCC(n2nc(-c3ccc(Oc4ccccc4)cc3)c3c(N)ncnc32)C1", "note": "(stereo not shown) [RC-2]", "sensitivity of degradation to the C481S mutation": "low sensitivity to the mutation"}
{"smiles": "Nc1ncnc2c1c(-c1ccc(Oc3ccccc3)cc1)nn2C1CCCN(C(=O)C=CCOCCOCCOCCOCCOCCOc2cccc3c2C(=O)N(C2CCC(=O)NC2=O)C3=O)C1", "note": "(stereo not shown) [IR-1]", "sensitivity of degradation to the C481S mutation": "low sensitivity to the mutation"}
{"smiles": "Nc1ncnc2c1c(-c1ccc(Oc3ccccc3)cc1)nn2C1CCCN(C(=O)C=CCCCCOCCOCCOCCOCCOc2cccc3c2C(=O)N(C2CCC(=O)NC2=O)C3=O)C1", "note": "(stereo not shown) [IR-2]", "sensitivity of degradation to the C481S mutation": "low sensitivity to the mutation"}
{"smiles": "Nc1ncnc2c1c(-c1ccc(Oc3ccccc3)cc1)nn2C1CCCN(C(=O)CCCCCCOCCOCCOCCOCCOc2cccc3c2C(=O)N(C2CCC(=O)NC2=O)C3=O)C1", "note": "(stereo not shown) [NC-1]", "sensitivity of degradation to the C481S mutation": "only mildly affected by the mutation"}
{"smiles": "CC(C)(C=C(C#N)C(=O)N1CCCC(n2nc(-c3ccc(Oc4ccccc4)cc3)c3c(N)ncnc32)C1)CCCOCCOCCOCCOCCOc1cccc2c1C(=O)N(C1CCC(=O)NC1=O)C2=O", "note": "(stereo not shown) [RC-3]", "sensitivity of degradation to the C481S mutation": "severely impaired by the mutation"}
{"target": "BTK (Homo sapiens, UniProt Q06187)", "sequence (Q06187 whole entry)": "as the sequence (Q06187 whole entry C481S) above, with S481C counted along it", "test": "BTK degradation in Mino cells, dose-response Western blot", "format": "cell-based", "set-up": "endogenous in cells; host or cells: Mino (ATCC CRL-3000), Ramos (ATCC CRL-1596), K562 (NCI-60)", "details": "24 h", "protocol": "(§2) We evaluated the ability of the compounds to induce degradation of BTK in human cell lines. We incubated Mino cells with the compounds and followed BTK levels after 24 h by Western blot (Figure 2, Supporting Figure 2). […] The irreversible acrylamides IR-1 and IR-2 and the cyanoacrylamide RC-3 followed closely with DC50’s under 10 nM and Dmax near 90%. […] We conducted metabolomics studies to estimate if cellular penetration and stability may contribute to the relative potencies (Supporting Table 2). NC-1 and RC-3 reached an effective concentration that was ∼2 times higher than IR-2 and ∼10 times higher than RC-2. Therefore, the lower potency of RC-2 can at least in part be explained by lower permeability or stability.\n(§3) Figure 2 Efficient BTK degradation in cells. (A) Western blot evaluation of BTK levels in Mino cells in response to various concentrations of RC-2, IR-2, NC-1, and RC-3, after 24 h of incubation. (B) Quantification of BTK levels in (A) by normalization to the β-actin house-keeping gene in Mino cells. DC50 and Dmax were calculated by fitting the data to a second-order polynomial using Prism software. (C) Summary of the DC50 and Dmax values for the PROTACs in Mino cells described in (A) and Supporting Figure 2. TEXT PRINTED IN THE PICTURE: (C) NC-1: DC50 (nM): 2.2; Dmax (%): 97 | (C) IR-1: DC50 (nM): 8.6; Dmax (%): 91 | (C) IR-2: DC50 (nM): 1.9; Dmax (%): 88 | (C) RC-1: DC50 (nM): 10; Dmax (%): 68 | (C) RC-2: DC50 (nM): 35; Dmax (%): 66 | (C) RC-3: DC50 (nM): 6; Dmax (%): 85\nas §1", "units": {"Dmax (maximal degradation)": "%"}}
{"smiles": "Nc1ncnc2c1c(-c1ccc(Oc3ccccc3)cc1)nn2C1CCCN(C(=O)C=CCOCCOCCOCCOCCOCCOc2cccc3c2C(=O)N(C2CCC(=O)NC2=O)C3=O)C1", "note": "(stereo not shown) [IR-1]", "Dmax (maximal degradation)": 91}
{"smiles": "Nc1ncnc2c1c(-c1ccc(Oc3ccccc3)cc1)nn2C1CCCN(C(=O)C=CCCCCOCCOCCOCCOCCOc2cccc3c2C(=O)N(C2CCC(=O)NC2=O)C3=O)C1", "note": "(stereo not shown) [IR-2]", "Dmax (maximal degradation)": 88}
{"smiles": "CC(C)(C=C(C#N)C(=O)N1CCCC(n2nc(-c3ccc(Oc4ccccc4)cc3)c3c(N)ncnc32)C1)CCCOCCOCCOCCOCCOc1cccc2c1C(=O)N(C1CCC(=O)NC1=O)C2=O", "note": "(stereo not shown) [RC-3]", "Dmax (maximal degradation)": 85}
{"target": "BTK (Homo sapiens, UniProt Q06187)", "test": "BTK degradation in Mino cells, dose-response Western blot", "format": "cell-based", "set-up": "endogenous in cells; host or cells: Mino (ATCC CRL-3000), Ramos (ATCC CRL-1596), K562 (NCI-60)", "details": "24 h, second-order polynomial fit", "protocol": "as §2, §3, §1"}
{"smiles": "Nc1ncnc2c1c(-c1ccc(Oc3ccccc3)cc1)nn2C1CCCN(C(=O)C=CCOCCOCCOCCOCCOCCOc2cccc3c2C(=O)N(C2CCC(=O)NC2=O)C3=O)C1", "note": "(stereo not shown) [IR-1]", "DC50": "< 10 nM and 8.6 nM"}
{"smiles": "Nc1ncnc2c1c(-c1ccc(Oc3ccccc3)cc1)nn2C1CCCN(C(=O)CCCCCCOCCOCCOCCOCCOc2cccc3c2C(=O)N(C2CCC(=O)NC2=O)C3=O)C1", "note": "(stereo not shown) [NC-1]", "DC50": "2.2 nM"}
{"smiles": "CC(C)(C=C(C#N)C(=O)N1CCCC(n2nc(-c3ccc(Oc4ccccc4)cc3)c3c(N)ncnc32)C1)CCCOCCOCCOCCOCCOc1cccc2c1C(=O)N(C1CCC(=O)NC1=O)C2=O", "note": "(stereo not shown) [RC-3]", "DC50": "< 10 nM and 6 nM"}
{"target": "BTK (Homo sapiens, UniProt Q06187)", "test": "BTK degradation in Mino cells, dose-response Western blot", "format": "cell-based", "set-up": "endogenous in cells; host or cells: Mino (ATCC CRL-3000), Ramos (ATCC CRL-1596), K562 (NCI-60)", "details": "MINO, 24 h, read-out: Dmax (maximal degradation)", "protocol": "as §2, §3, §1", "units": {"Dmax": "%"}}
{"smiles": "N#CC(=CCCCCOCCOCCOCCOCCOc1cccc2c1C(=O)N(C1CCC(=O)NC1=O)C2=O)C(=O)N1CCCC(n2nc(-c3ccc(Oc4ccccc4)cc3)c3c(N)ncnc32)C1", "note": "(stereo not shown) [RC-2]", "Dmax": 66}
{"smiles": "Nc1ncnc2c1c(-c1ccc(Oc3ccccc3)cc1)nn2C1CCCN(C(=O)C=CCOCCOCCOCCOCCOCCOc2cccc3c2C(=O)N(C2CCC(=O)NC2=O)C3=O)C1", "note": "(stereo not shown) [IR-1]", "Dmax": "~90"}
{"smiles": "Nc1ncnc2c1c(-c1ccc(Oc3ccccc3)cc1)nn2C1CCCN(C(=O)C=CCCCCOCCOCCOCCOCCOc2cccc3c2C(=O)N(C2CCC(=O)NC2=O)C3=O)C1", "note": "(stereo not shown) [IR-2]", "Dmax": "~90"}
{"smiles": "Nc1ncnc2c1c(-c1ccc(Oc3ccccc3)cc1)nn2C1CCCN(C(=O)CCCCCCOCCOCCOCCOCCOc2cccc3c2C(=O)N(C2CCC(=O)NC2=O)C3=O)C1", "note": "(stereo not shown) [NC-1]", "Dmax": 97}
{"smiles": "CC(C)(C=C(C#N)C(=O)N1CCCC(n2nc(-c3ccc(Oc4ccccc4)cc3)c3c(N)ncnc32)C1)CCCOCCOCCOCCOCCOc1cccc2c1C(=O)N(C1CCC(=O)NC1=O)C2=O", "note": "(stereo not shown) [RC-3]", "Dmax": "~90"}
